Patent publication US10376518B2, “Methods for the treatment of autoimmune diseases” (UCL Business PLC, priority 2013, dated 2019)

What was measured:
[1] = system: FOXP3 expression by CD8+ T cells; experiment: CD8+FOXP3+ Treg induction in PBMC cultures, flow cytometry; type: cell-based, human; conditions: for FOXP3 expression by CD8+ T cells: 24 h
Description: Isolation of cell populations. PBMC were isolated by Ficoll-Paque Plus (GE Healthcare) gradient centrifugation, resuspended to 10^7 cells/ml in FCS (Biosera) and 5% DMSO (Sigma-Aldrich), and frozen until subsequent use. CD8^+ T cells were negatively isolated and monocytes, CD4^+ T cells or B cells were depleted from PBMCs by positive selection with magnetic beads (Miltenyi, Biotec). Monocyte subsets or CD8^+ T cells interacting with monocytes were FACS sorted with the FACSAria (Beckton, Dickinson) based on expression of HLA-DR and CD14 or CD8 respectively.
(§1) Cell Cultures. For CD8^+FoxP3^+ Treg induction, PBMC were cultured with anti-CD3 mAb (OKT3 (e-bioscience), HIT3A (e-bioscience), UCHT1 (e-bioscience), Otelixizumab (GSK)) or anti-CD3 F(Ab)2 (GSK) in RPMI1640, (Sigma-Aldrich), 10% fetal calf serum (Biosera) or human serum type AB (Lonza), 100 U/mg/ml penicillin/streptomycin (Sigma-Aldrich) for 24 h or 5 d. Alternatively, 1 μg/ml of agonist antibodies against CD28 (e-bioscience) or TNFRII (Hycult Biotech) in combination with OKT3 were utilized in PBMC cultures depleted of monocytes. For cytokine neutralization cultures, PBMC were cultured with OKT3 alone or in the presence of an isotype control or 10 μg/ml anti-TNF-α (R&D systems) or anti-IL-1β mAbs (R&D systems), 12.5 μg/ml anti-TGF-β mAb (R&D systems) or 0.1 μg/ml anti-IL-6 mAb (R&D systems). To inhibit monocyte activation of CD8^+ T cells, 10 μg/ml anti-CD80 (R&D systems) or anti-CD86 (R&D systems) were utilized. To convert a non-responder CD8^+ T cell into a responder, whole PBMC were incubated with 10 μg/ml TAPI (Enzo Life Sciences) for 1 h at room temperature, or with 5 μM selective p38 MAPK inhibitor, BIRB 796 (Merck Millipore), for 2 hours at 37° C. before culture with OKT3.
Flow cytometry and soluble cytokine detection. Cell surface staining and intracellular staining were performed using the eBioscience FOXP3 staining buffer set as per manufacturers' instructions. For CD8^+ T cell staining, CD8-FITC and CD4-V450 were used to identify a pure CD8^+ T cell population. CD25-PECy7, TNFRII-APC, CTLA-4-PE, TGFβ-APC were used for characterization. For monocyte and B cells staining, CD14-APC, CD16-PE, HLA-DR-PECy7, CD19-APC were used in combination with membrane TNFα-PE. FOXP3-PE was used to detect intracellular FOXP3. For analysis of human intracellular cytokine production, PBMC were stimulated for 4 h with 50 ng/ml PMA, 250 ng/ml ionomycin (Sigma-Aldrich), and Golgi-Plug (BD, Biosciences) in complete medium. IFN-γ-PECy7, IL-10-APC, IL-2-APC, IL-17-APC, TNF-α-APC and appropriate isotype controls were utilized. For staining of membrane TNF-α versus soluble TNF-α production by monocytes, PBMC were cultured with anti-CD3 mAb alone, or after pre-incubation with TAPI, for 24 h. Supernatants were subsequently removed and replaced with the aforementioned stimulation mix for 4 h. PBMC were then stained for CD14-APC and membrane TNF-α-PE, before intracellular staining for TNF-α-FITC. Data were acquired on an LSRII (Beckton, Dickinson) and analyzed with FlowJo (TreeStar). IL-17 and IFN-γ levels from suppression assay supernatants were measured by mosaic ELISA (R&D Systems) as described by manufacturer's instruction and analyzed by Quansys Q-View™ Software (R&D Systems).

[2] = system: membrane TNF-α expression by monocytes; experiment: membrane TNF-α staining of monocytes in PBMC, flow cytometry; type: cell-based, human; conditions: PBMC pre-incubated 1 h at room temperature, 10 μg/ml
Procedure: as §1, with “To convert a non-responder CD8^+ T cell into a responder, whole PBMC were incubated with 10 μg/ml TAPI (Enzo Life Sciences) for 1 h at room temperature, or with 5 μM selective p38 MAPK inhibitor, BIRB 796 (Merck Millipore), for 2 hours at 37° C. before culture with OKT3.” left out
Flow cytometry and soluble cytokine detection. […] Data were acquired on an LSRII (Beckton, Dickinson) and analyzed with FlowJo (TreeStar). IL-17 and IFN-γ levels from suppression assay supernatants were measured by mosaic ELISA (R&D Systems) as described by manufacturer's instruction and analyzed by Quansys Q-View™ Software (R&D Systems).

[3] = fixed monocytes reintroduced to autologous monocyte-depleted PBMC

TAPI
maximal induction of CD8+FOXP3+ Treg from prior non-responders ([1]; RA PBMC pre-incubated with TAPI, then anti-CD3 mAb 24 h): approximately 50%
induction of CD8+FOXP3+ Treg in healthy individuals ([1]; healthy PBMC pre-incubated with TAPI, then OKT3 24 h): this effect was not observed in healthy individuals
expression of membrane TNF-α by monocytes [2]: increased expression of membrane TNF-α by monocytes

Cc1ccc(-n2nc(C(C)(C)C)cc2NC(=O)Nc2ccc(OCCN3CCOCC3)c3ccccc23)cc1 [BIRB 796]
FOXP3 expression by CD8+ T cells that did not initially respond to CD3-specific stimulation ([1]; RA PBMC pre-incubated 5 μM, 2 h, 37° C., then OKT3 24 h, non-responders): resulted in FOXP3 expression
response of CD8+ T cells that could already induce FOXP3 expression ([1]; RA PBMC pre-incubated 5 μM, 2 h, 37° C., then OKT3 24 h, responders): did not alter the response

OKT3: anti-CD3 mAb clone (e-bioscience)
FOXP3 expression by CD8+ T cells [1, 3]: successfully induced FOXP3 expression
FOXP3 expression by CD8+ T cells ([1]; whole RA PBMC, 1 μg/ml): successfully increased levels of FOXP3 expression

F(Ab)2 of Otelixizumab: F(Ab)2 fragment of the anti-CD3 antibody Otelixizumab (GSK)
FOXP3 expression by CD8+ T cells [1, 3]: successfully induced FOXP3 expression
